From paper PMC4445471, “Piezo1 ion channel pore properties are dictated by C-terminal region” (Nature Communications, 2015)

Key:
Assay in all cases: whole-cell patch clamp, mechanically activated current block
Assay type in all cases: cell-based
mPiezo1 [1] = molecular target: T1, mPiezo1 (Mus musculus, UniProt E2JF22, E2133Q); conditions: -80 mV; extracellular RR; pH 7.3; room temperature
T1 construct: gene Piezo1; full length, 2547 residues, IRES-EGFP pcDNA3.1(-) vector, transfected HEK293T

mPiezo2 [2] = molecular target: T2, mPiezo2 (Mus musculus, UniProt Q8CD54, E2416K); conditions: -80 mV; extracellular RR; pH 7.3; room temperature
T2 construct: gene Piezo2; full length, pCMV-Sport6 vector (printed for the E2416K mutant), transfected HEK293T

mPiezo1 [3] = molecular target: T3, mPiezo1 (Mus musculus, UniProt E2JF22, E2133D); conditions: -80 mV; extracellular RR; pH 7.3; room temperature
T3 construct: gene Piezo1; full length, 2547 residues, IRES-EGFP pcDNA3.1(-) vector, transfected HEK293T
T3 sequence (E2JF22 whole entry E2133D): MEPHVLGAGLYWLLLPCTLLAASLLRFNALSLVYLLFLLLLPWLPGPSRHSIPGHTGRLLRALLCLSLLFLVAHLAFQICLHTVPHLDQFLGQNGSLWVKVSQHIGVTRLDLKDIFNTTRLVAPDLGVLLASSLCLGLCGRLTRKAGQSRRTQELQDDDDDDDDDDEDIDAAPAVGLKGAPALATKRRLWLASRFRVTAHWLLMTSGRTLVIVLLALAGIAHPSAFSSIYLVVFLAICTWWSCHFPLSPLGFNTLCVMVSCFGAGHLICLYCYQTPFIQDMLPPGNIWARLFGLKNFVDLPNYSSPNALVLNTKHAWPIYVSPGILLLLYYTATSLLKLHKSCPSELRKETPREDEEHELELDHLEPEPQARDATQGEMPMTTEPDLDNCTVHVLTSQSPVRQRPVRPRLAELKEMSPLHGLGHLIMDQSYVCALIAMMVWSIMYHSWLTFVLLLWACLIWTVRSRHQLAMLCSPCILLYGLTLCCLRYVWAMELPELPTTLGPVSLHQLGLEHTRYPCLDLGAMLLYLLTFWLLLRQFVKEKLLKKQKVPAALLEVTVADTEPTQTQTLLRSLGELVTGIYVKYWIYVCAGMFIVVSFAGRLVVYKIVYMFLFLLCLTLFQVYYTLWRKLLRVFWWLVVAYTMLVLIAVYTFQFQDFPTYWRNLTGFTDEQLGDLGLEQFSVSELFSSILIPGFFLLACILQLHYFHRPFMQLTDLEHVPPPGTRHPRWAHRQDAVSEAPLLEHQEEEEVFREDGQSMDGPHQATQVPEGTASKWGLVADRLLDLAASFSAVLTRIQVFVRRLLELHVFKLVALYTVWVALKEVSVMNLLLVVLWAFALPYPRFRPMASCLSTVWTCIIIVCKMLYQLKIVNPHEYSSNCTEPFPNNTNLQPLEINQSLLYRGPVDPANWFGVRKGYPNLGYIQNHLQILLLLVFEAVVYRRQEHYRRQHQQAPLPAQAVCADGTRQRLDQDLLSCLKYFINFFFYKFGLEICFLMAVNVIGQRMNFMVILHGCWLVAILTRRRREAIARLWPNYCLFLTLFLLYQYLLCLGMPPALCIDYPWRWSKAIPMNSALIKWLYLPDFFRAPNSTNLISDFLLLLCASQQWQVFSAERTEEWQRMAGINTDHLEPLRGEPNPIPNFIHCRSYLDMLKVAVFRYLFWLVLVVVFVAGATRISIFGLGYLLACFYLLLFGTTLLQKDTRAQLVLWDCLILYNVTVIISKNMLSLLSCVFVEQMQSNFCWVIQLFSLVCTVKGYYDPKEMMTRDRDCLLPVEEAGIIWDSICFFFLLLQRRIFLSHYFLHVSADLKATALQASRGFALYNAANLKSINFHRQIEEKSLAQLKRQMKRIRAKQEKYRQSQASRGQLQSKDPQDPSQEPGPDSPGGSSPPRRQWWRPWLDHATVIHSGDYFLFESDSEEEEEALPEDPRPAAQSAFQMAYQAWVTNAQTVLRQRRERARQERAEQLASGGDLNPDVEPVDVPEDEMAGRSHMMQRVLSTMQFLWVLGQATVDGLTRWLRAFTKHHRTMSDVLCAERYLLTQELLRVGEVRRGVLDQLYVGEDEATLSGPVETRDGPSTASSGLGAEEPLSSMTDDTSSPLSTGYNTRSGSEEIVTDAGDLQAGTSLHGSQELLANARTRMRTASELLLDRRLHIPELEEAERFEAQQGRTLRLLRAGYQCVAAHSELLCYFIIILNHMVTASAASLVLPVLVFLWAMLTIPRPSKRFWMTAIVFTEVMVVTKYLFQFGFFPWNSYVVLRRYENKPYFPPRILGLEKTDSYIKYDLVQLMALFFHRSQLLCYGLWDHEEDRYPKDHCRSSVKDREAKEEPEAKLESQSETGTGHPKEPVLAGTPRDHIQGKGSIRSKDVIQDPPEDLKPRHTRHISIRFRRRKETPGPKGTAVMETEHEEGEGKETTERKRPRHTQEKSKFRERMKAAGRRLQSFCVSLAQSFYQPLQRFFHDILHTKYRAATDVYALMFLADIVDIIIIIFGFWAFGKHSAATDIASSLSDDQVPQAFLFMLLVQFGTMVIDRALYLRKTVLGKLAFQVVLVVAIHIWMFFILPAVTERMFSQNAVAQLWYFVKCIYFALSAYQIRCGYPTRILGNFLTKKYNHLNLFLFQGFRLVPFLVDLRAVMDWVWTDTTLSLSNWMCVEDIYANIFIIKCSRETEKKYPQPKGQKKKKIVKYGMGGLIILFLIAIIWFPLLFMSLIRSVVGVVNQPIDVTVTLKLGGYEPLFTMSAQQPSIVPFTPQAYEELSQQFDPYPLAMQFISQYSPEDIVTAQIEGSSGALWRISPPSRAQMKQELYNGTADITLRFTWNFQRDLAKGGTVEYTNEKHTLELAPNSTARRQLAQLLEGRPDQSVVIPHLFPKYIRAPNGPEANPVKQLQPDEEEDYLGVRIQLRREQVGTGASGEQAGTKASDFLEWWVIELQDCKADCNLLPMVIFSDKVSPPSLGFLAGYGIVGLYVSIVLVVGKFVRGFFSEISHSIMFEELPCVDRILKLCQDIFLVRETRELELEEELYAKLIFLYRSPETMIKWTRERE

mPiezo2 [4] = molecular target: T4, mPiezo2 (Mus musculus, UniProt Q8CD54); conditions: -80 mV; extracellular RR; pH 7.3; room temperature
T4 construct: gene Piezo2; full length, pCMV-Sport6 vector (printed for the E2416K mutant), transfected HEK293T

mPiezo1 [5] = molecular target: T5, mPiezo1 (Mus musculus, UniProt E2JF22, E2133K); conditions: -80 mV; extracellular RR; pH 7.3; room temperature
T5 construct: gene Piezo1; full length, 2547 residues, IRES-EGFP pcDNA3.1(-) vector, transfected HEK293T
T5 sequence (E2JF22 whole entry E2133K): as the sequence (E2JF22 whole entry E2133D) above, with D2133K counted along it

mPiezo1 [6] = molecular target: T6, mPiezo1 (Mus musculus, UniProt E2JF22); conditions: -80 mV; extracellular RR; pH 7.3; room temperature; voltage-dependent pore block
T6 construct: gene Piezo1; full length, 2547 residues, IRES-EGFP pcDNA3.1(-) vector, transfected HEK293T
T6 sequence (E2JF22 whole entry): as the sequence (E2JF22 whole entry E2133D) above, with D2133E counted along it

T1 sequence (E2JF22 whole entry E2133Q): as the sequence (E2JF22 whole entry E2133D) above, with D2133Q counted along it

What does the source list for `N.N.N.N.N.N.N.N.N.N.N.N.N.N.[Cl-].[Cl-].[Cl-].[Cl-].[Cl-].[Cl-].[O-2].[O-2].[Ru+3].[Ru+3].[Ru+4]` [ruthenium red]?
IC50 (mPiezo1 [1]): 5.62 ± 1.27 µM; % block at 30 μM (mPiezo2 [2]): 49.6±4.6%; IC50 (mPiezo1 [3]): 1.26 ± 0.28 µM; % block at 30 μM (mPiezo2 [4]): 70.8±1.4%; % block at 30 μM (mPiezo1 [5]): 8.1±7.1%; IC50 (mPiezo1 [6]): 4.71 ± 0.83 µM
